# Earlier results in the CATMoS acute toxicity set (Mansouri et al. 2021).
# “And” between values parts separate entries of the source, which are not always exact repeats. Equal values may be shown once.
# Test: rat acute oral toxicity
# Details: in vivo
row,SMILES,LD50
1,C=C(Cl)C#N,25 mg/kg
2,O=C(OCC(O)C1COc2ccccc2O1)N1CCOCC1 (stereo unspecified),1500 mg/kg
3,O=C(Nc1cccc(Cl)c1)OCC#CCOC(=O)Nc1cccc(Cl)c1,2040 mg/kg
4,CCN(CC)C(C)CN1c2ccccc2Sc2ccccc21 (stereo unspecified),1700 mg/kg
5,CC(C)CC(C)OC(=O)/C=C\C(=O)OC(C)CC(C)C (stereo unspecified),7340 mg/kg
6,CCSC(=O)NC1CCCCC1,2300 mg/kg
7,Clc1cc2c(cc1Cl)Oc1c(Cl)c(Cl)c(Cl)c(Cl)c1O2,0.887 mg/kg
8,NCCSSCCN,896 mg/kg
9,CC(C)(C)C(O)/C(=C\c1ccc(Cl)cc1)n1cncn1 (stereo unspecified),1790 mg/kg
10,C=CCOc1ccccc1OC(=O)NC,200 mg/kg
11,CCCOP(=S)(OC)SCN1C(=O)c2ccccc2C1=O (stereo unspecified),90 mg/kg
12,S=c1[nH]c2ccccc2[nH]1,300 mg/kg
13,CCC1(C)Oc2cccc(OC(=O)NC)c2O1 (stereo unspecified),25 mg/kg
14,O=C(OC1CCC(N2CCCCC2)CC1)c1ccc([N+](=O)[O-])cc1 (stereo unspecified),3250 mg/kg
15,Nc1cc(N)cc(C(F)(F)F)c1,380 mg/kg
16,CC(C)OP(=S)(OC(C)C)SCn1nc(Cl)ccc1=O,190 mg/kg
17,CCCC(=O)C(CC)Cc1ccccc1 (stereo unspecified),4400 mg/kg
18,COP(=S)(OC)OC1C2(C)CCC(C2)C1(C)C (stereo unspecified),250 mg/kg
19,CSC(C)=NOC(=O)N(C)SN(C)C(=O)Oc1ccc(OC(=O)N(C)SN(C)C(=O)ON=C(C)SC)cc1,453 mg/kg
20,C=CCOc1ccc(C2=C(c3ccccc3)C(C)(C)Oc3cc(OC)ccc32)cc1,500 mg/kg
21,Cc1cc(C)c(S(=O)(=O)O)c(C)c1Nc1ccc(Nc2c(C)cc(C)c(S(=O)(=O)O)c2C)c2c1C(=O)c1ccccc1C2=O,3350 mg/kg
22,COc1ccc(SP(=S)(CCl)OC(C)C)cc1 (stereo unspecified),108 mg/kg
23,C=CCC,4000 mg/kg
24,NC(=O)Cc1cccc2ccccc12,1690 mg/kg

row,SMILES,LD50
1,CCCN=C(N)C(OCC)c1ccccc1 (stereo unspecified),530 mg/kg
2,Nc1ccc(C(=O)O)c(O)c1,8000 mg/kg
3,O=C1CN(/N=C/c2ccc([N+](=O)[O-])o2)C(O)=N1,1490 mg/kg
4,CC(N)CNCCCO (stereo unspecified),5660 mg/kg
5,CN(C)C1CC(c2ccccc2)c2ccccc21 (stereo unspecified),176 mg/kg
6,CC[N+](CC)(CC)CCO,1000 mg/kg
7,Cc1ccccc1OCC(O)CN(NC=NC(=O)c1ccccc1)C(C)C (stereo unspecified),2930 mg/kg
8,C[C@H](CN1CCCC1)C(=O)c1ccc(C(F)(F)F)cc1,525 mg/kg
9,CCOP(=S)(OCC)SCn1nc(-c2ccccc2)ccc1=O,555 mg/kg
10,C=CCOC(=O)/C=C\C(=O)OCC=C,300 mg/kg
11,C[C@H]1C(=O)O[C@@H]2CCN3CC=C(COC(=O)[C@](C)(O)[C@]1(C)O)[C@H]23,66 mg/kg
12,Nc1nc2cc(Cl)c(O)cc2o1,1070 mg/kg
13,CCC(=O)OC(=O)CC,2360 mg/kg
14,C=C(C)C(=O)OCCN(CCOC(=O)C(=C)C)CCOC(=O)C(=C)C,11200 mg/kg
15,CC=CC=CC#N,712 mg/kg
16,CC1(C)S[C@@H]2[C@H](NC(=O)C(C(=O)O)c3ccsc3)C(=O)N2[C@H]1C(=O)O (stereo partly specified),16000 mg/kg
17,CCOC(=O)Nc1ccc2c(c1)N(C(=O)CCN(CC)CC)c1ccccc1CC2,138 mg/kg
18,O=P(OCCCl)(OCCCl)OCC(CO)(CO)COP(=O)(OCCCl)OCCCl,4920 mg/kg
19,CCOP(=S)(OCC)Oc1cc(Cl)c(I)cc1Cl,140 mg/kg
20,CNC(=O)Oc1cc(C(C)C)ccc1Cl,21 mg/kg
21,CC(=O)[C@]1(O)Cc2c(O)c3c(c(O)c2[C@@H](O[C@H]2C[C@H](N)[C@H](O)[C@H](C)O2)C1)C(=O)c1ccccc1C3=O,5.43 mg/kg
22,Nc1ccc2nc(C(F)(F)F)[nH]c2c1,67 mg/kg
23,COP(=O)(OC)Sc1ccc(Cl)cc1,100 mg/kg
24,CC(C)c1ccc(C=O)cc1,1390 mg/kg

row,SMILES,LD50
1,CC1(C)COC1=O,1470 mg/kg
2,CCOC(=O)CC(SP(=O)(OC)OC)C(=O)OCC (stereo unspecified),158 mg/kg
3,CN1CCN(CCC=C2c3ccccc3Sc3ccc(S(=O)(=O)N(C)C)cc32)CC1,720 mg/kg
4,CSP(=O)(SC)SC,30 mg/kg
5,CC1=CC(=O)C(C(C)C)CC1 (stereo unspecified),2450 mg/kg
6,CCCCCCCCCc1cccc(OCCOCC(=O)O)c1,880 mg/kg
7,CCCCOCCOCCCC,3250 mg/kg
8,CC(C)(SC(=O)N1CCCCC1)c1ccccc1,946 mg/kg
9,CC(C)Cc1ccc(C(C)C(=O)OCCN2CCN(c3cccc(Cl)c3)CC2)cc1 (stereo unspecified),3350 mg/kg
10,CCCSc1cc(Oc2ccc([N+](=O)[O-])cc2)ccc1Cl,1130 mg/kg
11,COc1ccc2c(c1)c(CC(=O)OC(C)c1ccccc1)c(C)n2C(=O)c1ccc(Cl)cc1 (stereo unspecified),425 mg/kg
12,N#Cc1cc([N+](=O)[O-])ccc1Cl,3200 mg/kg
13,c1coc(COCc2ccco2)c1,210 mg/kg
14,C=CC(N)CCC(=O)O (stereo unspecified),3000 mg/kg
15,CCCCCCCCCCCCN1CC(C)OC(C)C1 (stereo unspecified),3500 mg/kg
16,CCCSC(=O)Cl,1130 mg/kg
17,Nc1ccc(O)c(N)c1,240 mg/kg
18,Cc1cc(-n2c(C)nc3ccccc3c2=O)n(-c2ccccc2)n1,1800 mg/kg
19,OC1(c2ccccc2)c2ccccc2C2=NCCN21 (stereo unspecified),300 mg/kg
20,COc1ccc2c(c1)Sc1ccccc1N2C1CCCN(C)C1 (stereo unspecified),750 mg/kg
21,COP(=S)(OC)SCc1nc(=O)o[nH]1,10 mg/kg
22,C=C(Cl)c1ccc([N+](=O)[O-])cc1,710 mg/kg
23,NC(=O)c1ccc(Cl)c(N)c1,900 mg/kg
24,COc1ccc(NS(=O)(=O)c2ccc(N)cc2)nn1,2740 mg/kg

row,SMILES,LD50
1,Cn1c(=O)c2c(ncn2CC(=O)O)n(C)c1=O,900 mg/kg
2,CCCOC(C(=O)OC1CCN(C)CC1)(c1ccccc1)c1ccccc1,2250 mg/kg
3,O=C(O)c1ccc([N+](=O)[O-])cc1,1960 mg/kg
4,CCc1cc(CC)cc(OC(=O)NC)c1,1600 mg/kg
5,C[N+](C)(N)CCCl,3400 mg/kg
6,COc1ccc2c(c1)c(CC(=O)Oc1ccccc1C(=O)O)c(C)n2C(=O)c1ccc(Cl)cc1,59.5 mg/kg
7,COP(=S)(OC)SC1CCC2C=CCC1S2 (stereo unspecified),1000 mg/kg
8,CC1(C)CC2(NC(=O)N(CCCN3CCC(O)CC3)C2=O)c2cc(F)ccc2O1 (stereo unspecified),780 mg/kg
9,N#Cc1ccccc1CN1CCc2sccc2C1,228 mg/kg
10,CCN1CC(CC(N)=O)CC2c3cccc4[nH]cc(c34)CC21 (stereo unspecified),38.5 mg/kg
11,CC=C1CC(C)C(C)(O)C(=O)OCC2=CCN3CCC(OC1=O)C23 (stereo unspecified),85 mg/kg
12,O=C(C(F)(F)F)C(F)(F)F,190 mg/kg and 191 mg/kg
13,CN(N=O)C(=O)C(=O)N(C)N=O,96 mg/kg
14,NCCC[Si]12OCCN(CCO1)CCO2,5800 mg/kg
15,CC1=C[C@H]2O[C@@H]3[C@H](O)[C@@H](O)[C@](C)([C@@]2(CO)[C@H](O)C1=O)[C@]31CO1,19.5 mg/kg
16,OC[C@@H](O)[C@@H](O)[C@H](O)[C@@H](O)CO,15900 mg/kg
17,CC(C)NCCCC1(C(N)=O)c2ccccc2-c2ccccc21,82 mg/kg
18,CCC(=O)OC1(c2ccccc2)CCN(C)CC1CC (stereo unspecified),175 mg/kg
19,CCN(CCNC(=O)SCC(C)C)C(=O)SCC(C)C,2710 mg/kg
20,CCC1CCCC(CC)C1N (stereo unspecified),157 mg/kg
21,Clc1cncc(N2CCNCC2)n1,79.6 mg/kg
22,COc1cc(C=CC(=S)N2CCOCC2)cc(OC)c1OC,1350 mg/kg
23,Nc1ccc(-c2ccc(N)c(Cl)c2)cc1Cl,3820 mg/kg
24,C=C(CC)C(=O)c1ccc(OCC(=O)O)c(Cl)c1Cl,1000 mg/kg

row,SMILES,LD50
1,CC1(C)S[C@@H]2[C@H](NC(=O)Cc3ccccc3)C(=O)N2[C@H]1C(=O)O,8900 mg/kg and 8000 mg/kg and 6920 mg/kg
2,CCC1(CC)C(=O)NCC(C)C1=O (stereo unspecified),860 mg/kg
3,CCOC(=O)[C@H](CCc1ccccc1)N[C@@H](C)C(=O)N1C(=O)N(C)C[C@H]1C(=O)O,3540 mg/kg
4,CCOC(=O)CC(=O)NP(=O)(OC)SC (stereo unspecified),125 mg/kg
5,O=P(O)(O)CCCl,2200 mg/kg
6,CN(C)CCC#N,2600 mg/kg
7,O=C(O)C1CCc2cc(C3CCCCC3)ccc21 (stereo unspecified),287 mg/kg and 230 mg/kg
8,COC(=O)C1=C(C)NC(C)=C(C(=O)OCC(C)=O)C1c1ccccc1[N+](=O)[O-] (stereo unspecified),1460 mg/kg
9,CSc1ccccc1,891 mg/kg
10,C[N+]1(C)CCCC(OC(=O)C(O)(c2ccccc2)c2ccccc2)C1 (stereo unspecified),742 mg/kg
11,O=C(Cl)Oc1cccc2ccccc12,2550 mg/kg
12,CC1COC(C(Cl)CCl)O1 (stereo unspecified),620 mg/kg
13,CO[C@H]1CC[C@H](O[C@@H]2C[C@]3(C[C@H](O)[C@@H](C)[C@@H]([C@@H](C)C=C(C)C(=O)[C@H](C)C[C@H](C)C(=O)O)O3)O[C@]2(C)[C@H]2CC[C@@H](C)C3(O[C@@H]([C@@H]4O[C@](O)(CO)[C@@H](C)C[C@H]4C)C[C@@H]3C)O2)O[C@@H]1C (stereo partly specified),7.5 mg/kg
14,Cc1nc2cnc3ccccc3c2s1,900 mg/kg and 950 mg/kg
15,CCC(O)CCO (stereo unspecified),20000 mg/kg
16,CC1NC(=O)c2cc(N)ccc2O1 (stereo unspecified),1420 mg/kg
17,CC1(C)Cc2cccc(OC(=O)NCSc3ccc(Cl)cc3)c2O1,25 mg/kg
18,Cc1ccc(C)nc1,800 mg/kg
19,c1cc(OCC2CO2)ccc1CC1CO1 (stereo unspecified),4290 mg/kg
20,O=P(O)(O)CN(CC(O)CN(CP(=O)(O)O)CP(=O)(O)O)CP(=O)(O)O,4300 mg/kg
21,Cc1ccc(C)c(CCNC(N)=O)c1,2300 mg/kg
22,O=[N+]([O-])c1cc2nc(C(F)(F)F)[nH]c2cc1Cl,5.55 mg/kg
23,CN(C)C(=O)Nc1cccc(OC(=O)NC(C)(C)C)c1,3000 mg/kg
24,CC(C)N=C1SC(=NOC(=O)N(C)SC(Cl)(Cl)Cl)C(C)(C)S1,226 mg/kg

row,SMILES,LD50
1,CCN(CC)CCC(=O)N1c2ccccc2Sc2ccc(C(F)(F)F)cc21,860 mg/kg
2,CNCCCN,951 mg/kg
3,COP(=S)(OC)SCSc1ccc(Cl)cc1,48 mg/kg
4,COc1ccc2cc(C(C)C(=O)OCC(O)CO)ccc2c1 (stereo unspecified),1630 mg/kg
5,Nc1ccc(Oc2ccc(S(=O)(=O)c3ccc(Oc4ccc(N)cc4)cc3)cc2)cc1,220 mg/kg
6,BrCc1cccc(Oc2ccccc2)c1,2330 mg/kg
7,CC1=C(C(C)C)CC=CC1,4270 mg/kg
8,CC1(C)C(C(=O)OCc2coc(Cc3ccccc3)c2)C1(C)C,141 mg/kg
9,COc1cc(C=CC(=O)N2CCN(CC(=O)NC(C)C)CC2)cc(OC)c1OC,1300 mg/kg
10,CN(C)CCCN1c2ccccc2Sc2ccccc21,350 mg/kg and 400 mg/kg
11,CCCN(CCCCOC(=O)c1ccc(OC)c(OC)c1)C1CCc2cc(OC)ccc2C1 (stereo unspecified),707 mg/kg
12,C=COCC(C)CCCC(C)CC(C)C (stereo unspecified),1220 mg/kg
13,COc1c(O)cc(Cl)c(Cl)c1Cl,2980 mg/kg
14,SCc1ccccc1,493 mg/kg
15,CC1=C2C(=O)O[C@@H](c3ccoc3)[C@]2(C)CCC1,274 mg/kg
16,O=C1CCc2cc(C=CCCN3CCN(c4ccccc4)CC3)ccc2N1,500 mg/kg
17,CC(C)c1cccc(OC(=O)N(C)N=O)c1,400 mg/kg
18,CCC(CO)(CO)CO,14100 mg/kg
19,O=C1OC(=O)C2CC=CCC12 (stereo unspecified),5410 mg/kg
20,CCOCCOc1ccc(Cl)cc1Cl,1410 mg/kg
21,C#CCBr,53 mg/kg
